Here are results for four compounds from ChEMBL document CHEMBL1201862, “PubChem BioAssay data set” (2004).

Each structure is given as a SMILES string. Activity calls are given as the source filed them. Rule as the data show it: actives have a measured IC50 and inactives only a lower limit.

Holding throughout (type): functional
Test [1] deals with T1, Sentrin-specific protease 8 (Homo sapiens, UniProt Q96LD8).
T1 sequence (Q96LD8 whole entry): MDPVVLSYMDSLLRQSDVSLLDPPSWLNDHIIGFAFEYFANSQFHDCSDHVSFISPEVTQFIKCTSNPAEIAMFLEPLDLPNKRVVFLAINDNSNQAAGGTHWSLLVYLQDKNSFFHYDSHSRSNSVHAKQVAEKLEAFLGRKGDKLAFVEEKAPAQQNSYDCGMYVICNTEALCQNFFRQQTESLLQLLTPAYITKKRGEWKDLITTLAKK

Test [2] deals with T2, Apoptotic protease-activating factor 1 (Homo sapiens, UniProt O14727).
T2 sequence (O14727 whole entry): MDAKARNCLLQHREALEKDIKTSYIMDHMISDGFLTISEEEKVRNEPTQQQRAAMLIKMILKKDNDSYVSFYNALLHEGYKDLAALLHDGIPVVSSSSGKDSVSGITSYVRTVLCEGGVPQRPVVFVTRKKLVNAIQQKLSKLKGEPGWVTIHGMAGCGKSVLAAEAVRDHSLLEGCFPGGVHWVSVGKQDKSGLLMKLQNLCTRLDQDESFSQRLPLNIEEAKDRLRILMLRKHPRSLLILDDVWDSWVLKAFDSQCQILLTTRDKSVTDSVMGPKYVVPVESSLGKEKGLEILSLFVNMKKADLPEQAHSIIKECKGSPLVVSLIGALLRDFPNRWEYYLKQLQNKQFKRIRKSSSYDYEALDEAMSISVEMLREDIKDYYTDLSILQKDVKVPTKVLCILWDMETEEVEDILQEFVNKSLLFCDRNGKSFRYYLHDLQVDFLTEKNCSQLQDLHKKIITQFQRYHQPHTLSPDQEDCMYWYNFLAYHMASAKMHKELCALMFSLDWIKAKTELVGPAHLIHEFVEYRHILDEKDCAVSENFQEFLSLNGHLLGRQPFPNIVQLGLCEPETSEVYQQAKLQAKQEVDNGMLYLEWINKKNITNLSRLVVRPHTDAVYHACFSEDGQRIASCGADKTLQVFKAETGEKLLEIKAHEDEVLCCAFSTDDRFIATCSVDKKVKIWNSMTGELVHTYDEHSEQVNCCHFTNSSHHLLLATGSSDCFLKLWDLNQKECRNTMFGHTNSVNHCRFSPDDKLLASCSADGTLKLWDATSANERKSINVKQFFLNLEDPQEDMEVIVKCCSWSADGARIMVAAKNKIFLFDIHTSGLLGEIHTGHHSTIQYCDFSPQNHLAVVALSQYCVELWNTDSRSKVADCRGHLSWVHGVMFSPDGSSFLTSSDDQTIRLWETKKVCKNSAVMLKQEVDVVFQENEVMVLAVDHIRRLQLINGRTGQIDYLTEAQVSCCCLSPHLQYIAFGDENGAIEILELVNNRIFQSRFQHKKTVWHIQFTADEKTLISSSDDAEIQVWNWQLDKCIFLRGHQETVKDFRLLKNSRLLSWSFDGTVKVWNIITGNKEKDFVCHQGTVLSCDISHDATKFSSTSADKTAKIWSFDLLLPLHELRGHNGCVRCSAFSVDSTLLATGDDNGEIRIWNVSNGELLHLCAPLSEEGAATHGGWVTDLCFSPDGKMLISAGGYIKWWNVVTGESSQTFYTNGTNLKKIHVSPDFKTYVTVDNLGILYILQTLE

Test [3] addresses T3, Sentrin-specific protease 6 (Homo sapiens, UniProt Q9GZR1).
T3 sequence (Q9GZR1 whole entry): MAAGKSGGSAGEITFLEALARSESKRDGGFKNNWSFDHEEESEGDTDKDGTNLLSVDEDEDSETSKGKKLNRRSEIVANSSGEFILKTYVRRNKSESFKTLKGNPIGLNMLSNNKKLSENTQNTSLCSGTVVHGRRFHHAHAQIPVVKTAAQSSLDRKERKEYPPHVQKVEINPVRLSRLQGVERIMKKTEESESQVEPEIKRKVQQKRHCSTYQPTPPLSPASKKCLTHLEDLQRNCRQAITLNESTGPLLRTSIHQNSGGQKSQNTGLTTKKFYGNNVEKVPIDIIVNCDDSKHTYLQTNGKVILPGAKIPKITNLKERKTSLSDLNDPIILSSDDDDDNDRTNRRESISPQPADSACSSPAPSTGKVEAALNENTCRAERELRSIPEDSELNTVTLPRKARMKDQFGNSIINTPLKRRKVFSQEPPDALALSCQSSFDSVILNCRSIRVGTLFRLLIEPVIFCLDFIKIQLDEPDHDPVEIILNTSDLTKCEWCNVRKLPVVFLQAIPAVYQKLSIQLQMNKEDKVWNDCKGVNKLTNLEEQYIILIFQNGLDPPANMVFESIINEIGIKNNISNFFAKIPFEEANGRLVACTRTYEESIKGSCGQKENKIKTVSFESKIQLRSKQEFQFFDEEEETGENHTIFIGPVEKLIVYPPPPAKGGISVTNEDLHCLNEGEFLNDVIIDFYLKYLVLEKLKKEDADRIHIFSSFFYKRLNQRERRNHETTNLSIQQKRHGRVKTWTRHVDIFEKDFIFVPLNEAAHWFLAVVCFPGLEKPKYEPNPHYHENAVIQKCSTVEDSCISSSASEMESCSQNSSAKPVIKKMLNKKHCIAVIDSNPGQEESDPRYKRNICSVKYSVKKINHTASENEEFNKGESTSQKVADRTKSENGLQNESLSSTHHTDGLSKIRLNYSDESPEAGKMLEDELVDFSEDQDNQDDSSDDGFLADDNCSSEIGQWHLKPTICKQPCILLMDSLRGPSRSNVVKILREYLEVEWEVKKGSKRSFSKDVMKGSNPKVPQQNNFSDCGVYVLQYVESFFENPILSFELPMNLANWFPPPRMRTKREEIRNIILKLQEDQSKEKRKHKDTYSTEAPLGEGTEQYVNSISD

For the compound `O=C(NC1(O)C(=O)c2ccccc2C1=O)c1ccc(C(F)(F)F)cc1`, the values for the IC50 in test [1], in test [2] and in test [3] were 4.9 µM (active), 2.97 µM (active) and 2.66 µM (active), respectively.

For `O=C(NC1(O)C(=O)c2ccccc2C1=O)c1c(Cl)cccc1Cl`, the IC50 in test [1] is 4.78 µM (active); in test [2], 2.7 µM (active); in test [3], 3.53 µM (active).

On to `O=C(COC(=O)c1ccc([N+](=O)[O-])s1)Nc1ncc(C(F)(F)F)cc1Cl`, for which the IC50 was 4.83 µM (active) in test [1] and 5.68 µM (active) in test [3].

On to `CCN(c1ccccc1)c1cc2ccccc2c(=O)[nH]1`, for which the IC50 was 3.73 µM (active) in test [1], 18.7 µM (active) in test [2] and 2.21 µM (active) in test [3].
